Measurements: PubChem BioAssay (NCI)
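Method: 48-hour compound exposure of cells in 96-well plates, five concentrations, linear interpolation of endpoints. At the GI50, growth is halved. TGI denotes the concentration required for complete inhibition of growth.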

How the values were obtained:
Test in all cases: NCI anticancer screen, dose series, 48 h
OVCAR-3 ovarian = tested on: OVCAR-3 ovarian
COLO 205 colon = tested on: COLO 205 colon
UACC-62 melanoma = tested on: UACC-62 melanoma
BT-549 breast = tested on: BT-549 breast
A549 NSCLC = tested on: A549 NSCLC
OVCAR-4 ovarian = tested on: OVCAR-4 ovarian
IGROV1 ovarian = tested on: IGROV1 ovarian
PC-3 prostate = tested on: PC-3 prostate
SK-OV-3 ovarian = tested on: SK-OV-3 ovarian
RXF 393 renal = tested on: RXF 393 renal

COc1cc2nc3sc(C(=O)Nc4ccc(C(=O)OC(C)C)cc4)c(C(=O)Nc4ccc(Cl)cc4C)n3c(=O)c2cc1OC
GI50 (OVCAR-3 ovarian): 2.66 µM | TGI (OVCAR-3 ovarian): 10.6 µM | GI50 (COLO 205 colon): 7.02 µM | TGI (COLO 205 colon): 51.9 µM | GI50 (UACC-62 melanoma): 6.8 µM | TGI (UACC-62 melanoma): 91.8 µM | GI50 (BT-549 breast): 1.67 µM | TGI (BT-549 breast): 20 µM | GI50 (A549 NSCLC): 0.824 µM | TGI (A549 NSCLC): > 100 µM | GI50 (OVCAR-4 ovarian): 11.2 µM | TGI (OVCAR-4 ovarian): > 100 µM | GI50 (IGROV1 ovarian): 0.69 µM | TGI (IGROV1 ovarian): 17.8 µM | GI50 (PC-3 prostate): 18.5 µM | TGI (PC-3 prostate): > 100 µM | GI50 (SK-OV-3 ovarian): 23.3 µM | TGI (SK-OV-3 ovarian): 70 µM

Cc1ccc(NC(=O)CCC(CC(=O)C(C)(C)C)=NNC(=O)C(=O)NN)cc1C
TGI (OVCAR-3 ovarian): > 100 µM | TGI (COLO 205 colon): > 100 µM | TGI (UACC-62 melanoma): > 100 µM | TGI (A549 NSCLC): > 100 µM | TGI (OVCAR-4 ovarian): > 100 µM | TGI (IGROV1 ovarian): > 100 µM | TGI (RXF 393 renal): > 100 µM | TGI (SK-OV-3 ovarian): > 100 µM

Cc1[nH]c2ccccc2c1C1Cc2ccccc2N1C(=O)/C=C/C=C/c1ccccc1 (stereo not given)
TGI (OVCAR-3 ovarian): > 100 µM | TGI (COLO 205 colon): > 100 µM | TGI (UACC-62 melanoma): > 100 µM | TGI (A549 NSCLC): > 100 µM | TGI (OVCAR-4 ovarian): > 100 µM | TGI (IGROV1 ovarian): > 100 µM | TGI (RXF 393 renal): > 100 µM | TGI (SK-OV-3 ovarian): > 100 µM

COC(=O)/C=C1/CCC2[C@@H](C(=O)CC3[C@]2(C)CCC[C@@]3(C)C(=O)OC)C1C (stereo not given in full)
TGI (OVCAR-3 ovarian): 20.4 µM | TGI (COLO 205 colon): 18.1 µM | TGI (UACC-62 melanoma): 30.1 µM | TGI (A549 NSCLC): 37.7 µM | TGI (OVCAR-4 ovarian): 21.6 µM | TGI (IGROV1 ovarian): 43.6 µM | TGI (SK-OV-3 ovarian): 51.6 µM

C[C@@H]1CN(C(=O)c2ccc(NC(=O)c3cc(O[C@H](C)c4c(Cl)ccc(F)c4Cl)c(N)nn3)cc2)C[C@H](C)N1
GI50 (OVCAR-3 ovarian): 6.44 µM | TGI (OVCAR-3 ovarian): 19 µM | GI50 (UACC-62 melanoma): 1.7 µM | TGI (UACC-62 melanoma): 5.24 µM | GI50 (BT-549 breast): 5.14 µM | TGI (BT-549 breast): 16.5 µM | GI50 (A549 NSCLC): 3.03 µM | TGI (A549 NSCLC): 15.8 µM | GI50 (OVCAR-4 ovarian): 8.84 µM | TGI (OVCAR-4 ovarian): 24.1 µM | GI50 (IGROV1 ovarian): 4.38 µM | TGI (IGROV1 ovarian): 20.4 µM | GI50 (RXF 393 renal): 1.93 µM | TGI (RXF 393 renal): 5.29 µM | GI50 (PC-3 prostate): 3.65 µM | TGI (PC-3 prostate): 16.7 µM | GI50 (SK-OV-3 ovarian): 11.1 µM | TGI (SK-OV-3 ovarian): 23.1 µM

CC(=O)OC(/C=C1/C=CC(=O)O1)COC(=O)c1ccccc1 (stereo not given)
TGI (OVCAR-3 ovarian): > 31.2 µM | TGI (COLO 205 colon): > 31.2 µM | TGI (UACC-62 melanoma): > 31.2 µM | TGI (A549 NSCLC): > 31.2 µM | TGI (OVCAR-4 ovarian): > 31.2 µM | TGI (IGROV1 ovarian): > 31.2 µM | TGI (RXF 393 renal): > 31.2 µM | TGI (SK-OV-3 ovarian): > 31.2 µM

C/C(=C\C(C)COCc1ccccc1)[C@H](COCc1ccccc1)OCc1ccccc1 (stereo not given in full)
TGI (OVCAR-3 ovarian): > 100 µM | TGI (COLO 205 colon): > 100 µM | TGI (UACC-62 melanoma): > 100 µM | TGI (A549 NSCLC): > 100 µM | TGI (OVCAR-4 ovarian): > 100 µM | TGI (IGROV1 ovarian): > 100 µM | TGI (RXF 393 renal): > 100 µM | TGI (SK-OV-3 ovarian): > 100 µM

CCOC(=O)/C(=C\c1ccc(O)c(OC)c1)C(=O)c1ccccc1
TGI (OVCAR-3 ovarian): 54.3 µM | TGI (COLO 205 colon): > 69.1 µM | TGI (UACC-62 melanoma): 28.6 µM | TGI (A549 NSCLC): 51.3 µM | TGI (OVCAR-4 ovarian): > 40.3 µM | TGI (IGROV1 ovarian): 39 µM | TGI (RXF 393 renal): 57.8 µM | TGI (SK-OV-3 ovarian): > 61.4 µM

COc1cc(/C=C2/C(=O)N(C(=O)OC(C)C)C(Cc3cc(OC)c(OC)c(C)c3OC)C(=O)N2Cc2ccccc2)c(OC)c(C)c1OC (stereo not given)
TGI (OVCAR-3 ovarian): > 100 µM | TGI (COLO 205 colon): > 100 µM | TGI (UACC-62 melanoma): > 100 µM | TGI (A549 NSCLC): > 100 µM | TGI (OVCAR-4 ovarian): > 100 µM | TGI (IGROV1 ovarian): > 100 µM | TGI (RXF 393 renal): > 100 µM | TGI (SK-OV-3 ovarian): > 100 µM

Cc1cc(O)cc2oc(=O)c3c(O)cc(O)cc3c12
TGI (OVCAR-3 ovarian): 58.4 µM | TGI (COLO 205 colon): 66.7 µM | TGI (UACC-62 melanoma): 81 µM | TGI (A549 NSCLC): 86 µM | TGI (OVCAR-4 ovarian): > 100 µM | TGI (IGROV1 ovarian): 74.7 µM | TGI (RXF 393 renal): 54.5 µM | TGI (SK-OV-3 ovarian): 45.5 µM

Cc1ccc(NC(=O)C(=O)C2C(=O)N(c3ccccc3)N=C2N)cc1C (stereo not given)
TGI (OVCAR-3 ovarian): > 100 µM | TGI (COLO 205 colon): > 100 µM | TGI (UACC-62 melanoma): > 100 µM | TGI (A549 NSCLC): > 100 µM | TGI (OVCAR-4 ovarian): > 100 µM | TGI (IGROV1 ovarian): > 100 µM | TGI (SK-OV-3 ovarian): > 100 µM

O=c1/c(=C/c2cccc([N+](=O)[O-])c2)sc2nc3ccccc3n12
TGI (UACC-62 melanoma): > 100 µM | TGI (OVCAR-4 ovarian): > 100 µM | TGI (RXF 393 renal): > 100 µM | TGI (SK-OV-3 ovarian): > 100 µM

CCOC12OC3=C(CC1CC1=C(CCC1=O)O2)C(=O)CC3 (stereo not given)
TGI (OVCAR-3 ovarian): > 100 µM | TGI (COLO 205 colon): > 100 µM | TGI (UACC-62 melanoma): > 100 µM | TGI (A549 NSCLC): > 100 µM | TGI (OVCAR-4 ovarian): > 100 µM | TGI (IGROV1 ovarian): > 100 µM | TGI (RXF 393 renal): > 100 µM | TGI (SK-OV-3 ovarian): > 100 µM

CC1=C(C(=O)Nc2ccc(F)c(Cl)c2)C(c2ccccc2Cl)NC(=S)N1 (stereo not given)
GI50 (OVCAR-3 ovarian): 39.5 µM | TGI (OVCAR-3 ovarian): > 50 µM | GI50 (COLO 205 colon): 23.9 µM | TGI (COLO 205 colon): > 50 µM | GI50 (UACC-62 melanoma): 9.63 µM | TGI (UACC-62 melanoma): > 50 µM | GI50 (BT-549 breast): > 50 µM | TGI (BT-549 breast): > 50 µM | GI50 (A549 NSCLC): 24.8 µM | TGI (A549 NSCLC): > 50 µM | GI50 (IGROV1 ovarian): 22.8 µM | TGI (IGROV1 ovarian): > 50 µM | GI50 (RXF 393 renal): 16.9 µM | TGI (RXF 393 renal): 37.7 µM | GI50 (PC-3 prostate): 20.2 µM | TGI (PC-3 prostate): > 50 µM | GI50 (SK-OV-3 ovarian): > 50 µM | TGI (SK-OV-3 ovarian): > 50 µM

CC1CC2(C)ON=C(c3ccccc3)N2c2ccccc2S1 (stereo not given)
GI50 (OVCAR-3 ovarian): 94.1 µM | GI50 (COLO 205 colon): 22.6 µM | TGI (COLO 205 colon): 56.2 µM | GI50 (UACC-62 melanoma): 21 µM | TGI (UACC-62 melanoma): 84.3 µM | GI50 (BT-549 breast): 24.8 µM | TGI (BT-549 breast): 67.4 µM | GI50 (A549 NSCLC): 34.3 µM | GI50 (OVCAR-4 ovarian): 88 µM | GI50 (IGROV1 ovarian): 53 µM | GI50 (SK-OV-3 ovarian): 9.55 µM | TGI (SK-OV-3 ovarian): 91.9 µM

CC1=NN(c2ccccc2)C(=O)C1=C1SCCS1
TGI (OVCAR-3 ovarian): > 100 µM | TGI (COLO 205 colon): > 56.8 µM | TGI (UACC-62 melanoma): > 100 µM | TGI (A549 NSCLC): > 100 µM | TGI (OVCAR-4 ovarian): > 100 µM | TGI (IGROV1 ovarian): > 100 µM | TGI (RXF 393 renal): > 65.4 µM | TGI (SK-OV-3 ovarian): > 100 µM

COc1ccc2c(=O)c(C)c(-c3ccccc3)oc2c1CN(C)C
TGI (OVCAR-3 ovarian): > 100 µM | TGI (COLO 205 colon): > 100 µM | TGI (UACC-62 melanoma): > 100 µM | TGI (A549 NSCLC): > 100 µM | TGI (OVCAR-4 ovarian): > 100 µM | TGI (IGROV1 ovarian): > 100 µM | TGI (RXF 393 renal): > 100 µM | TGI (SK-OV-3 ovarian): > 100 µM

CC1(C)COC(C23C4C5C2C2C3C4C52I)=N1 (stereo not given)
TGI (OVCAR-3 ovarian): > 100 µM | TGI (COLO 205 colon): > 100 µM | TGI (UACC-62 melanoma): > 100 µM | TGI (A549 NSCLC): > 100 µM | TGI (OVCAR-4 ovarian): > 100 µM | TGI (IGROV1 ovarian): > 100 µM | TGI (RXF 393 renal): > 100 µM | TGI (SK-OV-3 ovarian): > 100 µM

CCOC(=O)C12CCCC1(O)N(NC(=O)c1ccccc1)C(C)=C2C(=O)OC (stereo not given)
TGI (OVCAR-3 ovarian): > 100 µM | TGI (COLO 205 colon): > 100 µM | TGI (UACC-62 melanoma): > 100 µM | TGI (A549 NSCLC): > 100 µM | TGI (OVCAR-4 ovarian): > 100 µM | TGI (IGROV1 ovarian): > 100 µM | TGI (SK-OV-3 ovarian): > 100 µM

COc1ccccc1OCC(=O)Nc1sc2c(c1C(N)=O)CCC2
GI50 (OVCAR-3 ovarian): > 100 µM | TGI (OVCAR-3 ovarian): > 100 µM | GI50 (COLO 205 colon): > 100 µM | TGI (COLO 205 colon): > 100 µM | GI50 (UACC-62 melanoma): 38.1 µM | TGI (UACC-62 melanoma): > 100 µM | GI50 (BT-549 breast): > 100 µM | TGI (BT-549 breast): > 100 µM | GI50 (A549 NSCLC): 32.4 µM | TGI (A549 NSCLC): > 100 µM | GI50 (OVCAR-4 ovarian): > 100 µM | TGI (OVCAR-4 ovarian): > 100 µM | GI50 (IGROV1 ovarian): > 100 µM | TGI (IGROV1 ovarian): > 100 µM | GI50 (SK-OV-3 ovarian): > 100 µM | TGI (SK-OV-3 ovarian): > 100 µM

CCOC(C)C(/C=N/NC(N)=S)=NNC(N)=S (stereo not given)
TGI (COLO 205 colon): > 100 µM | TGI (UACC-62 melanoma): > 100 µM | TGI (A549 NSCLC): > 100 µM | TGI (OVCAR-4 ovarian): > 100 µM | TGI (SK-OV-3 ovarian): > 100 µM
